Assay results from patent US12723063B2, “GIPR-agonist compounds” (Eli Lilly and Company, priority 2019, dated 2026).
*1 amine or outer side, *2 acyl side, *3 side chain or, on linkers, in order; H or OH if unused. Where a SMILES comes first, the peptide text is derived from it. Side-chain parts run from the residue outwards. [ ]: non-standard residue; d: D form. The star is where a group is joined. C18 diacid = O=C(O)CCCCCCCCCCCCCCCCC(=O)*; γGlu = O=C(O)[C@H](CCC(=O)[*:2])N[*:1]; 4Pal = N[C@@H](Cc1ccncc1)C(=O)O; αMeL = CC(C)C[C@](C)(N)C(=O)O; Orn = NCCC[C@H](N)C(=O)O; AEEA = NCCOCCOCC(=O)O; Aib = CC(C)(N)C(=O)O

What was measured:
[1] = target: T1, human GcgR (Homo sapiens, UniProt P47871); assay: [125I]-Glucagon binding, SPA with WGA beads, 0.1% bacitracin; conditions: geometric mean, read-out: hGcgR Ki
T1 construct: expressed in transfected cells; crude membranes
Outline: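 SPA competition binding with WGA beads on crude membranes from HEK293 cells stably expressing hGcgR. Buffer: 25 mM HEPES pH 7.4, 2.5 mM CaCl2, 1 mM MgCl2, 0.1% bacitracin, 0.003% Tween-20; 10-point 3-fold dilutions, NSB with 1 μM Gcg.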

[2] = target: T2, human GLP-1 receptor (GLP-1R) (Homo sapiens, UniProt P43220); assay: cAMP functional assay (HTRF) in HEK293 cells in presence of 0.1% casein; format: cell-based; conditions: HEK293 cells expressing human GLP-1R, geometric mean, read-out: hGLP1R cAMP Rel EC50 nM (SEM, n)
T2 construct: expressed in transfected cells; host or cells: HEK293
T2 sequence (P43220 24-463): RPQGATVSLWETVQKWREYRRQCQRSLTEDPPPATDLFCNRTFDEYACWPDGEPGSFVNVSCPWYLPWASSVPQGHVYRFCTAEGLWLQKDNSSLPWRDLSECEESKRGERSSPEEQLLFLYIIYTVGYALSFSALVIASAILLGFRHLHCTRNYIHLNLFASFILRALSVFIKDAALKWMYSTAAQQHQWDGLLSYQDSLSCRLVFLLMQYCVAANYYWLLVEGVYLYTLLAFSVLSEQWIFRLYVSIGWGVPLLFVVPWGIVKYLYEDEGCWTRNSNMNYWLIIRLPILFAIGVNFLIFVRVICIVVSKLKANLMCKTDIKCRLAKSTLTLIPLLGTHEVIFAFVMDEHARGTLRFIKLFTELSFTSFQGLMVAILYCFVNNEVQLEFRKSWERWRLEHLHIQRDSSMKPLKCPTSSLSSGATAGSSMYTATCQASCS

T1 sequence (P47871 26-477): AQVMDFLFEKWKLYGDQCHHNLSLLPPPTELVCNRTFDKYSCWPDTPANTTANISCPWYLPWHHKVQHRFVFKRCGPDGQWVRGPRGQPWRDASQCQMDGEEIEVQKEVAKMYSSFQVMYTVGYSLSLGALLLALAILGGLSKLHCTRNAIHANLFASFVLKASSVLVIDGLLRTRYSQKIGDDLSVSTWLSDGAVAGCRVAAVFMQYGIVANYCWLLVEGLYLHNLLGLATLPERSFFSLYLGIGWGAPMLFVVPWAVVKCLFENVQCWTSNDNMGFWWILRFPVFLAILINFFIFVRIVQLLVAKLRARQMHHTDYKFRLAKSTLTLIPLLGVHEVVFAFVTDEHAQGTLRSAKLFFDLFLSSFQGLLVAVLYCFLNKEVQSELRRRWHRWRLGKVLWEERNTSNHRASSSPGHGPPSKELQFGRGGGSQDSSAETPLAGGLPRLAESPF

SMILES | Ki [1] | EC50 [2]
CC[C@H](C)[C@H](NC(=O)[C@H](CCCCN)NC(=O)[C@H](CC(=O)O)NC(=O)[C@H](CC(C)C)NC(=O)[C@](C)(CC(C)C)NC(=O)[C@@H](NC(=O)[C@H](CO)NC(=O)[C@H](Cc1ccc(O)cc1)NC(=O)[C@H](CC(=O)O)NC(=O)[C@H](CO)NC(=O)[C@@H](NC(=O)[C@H](Cc1ccccc1)NC(=O)[C@@H](NC(=O)CNC(=O)[C@H](CCC(=O)O)NC(=O)C(C)(C)NC(=O)[C@@H](N)Cc1ccc(O)cc1)[C@@H](C)O)[C@@H](C)CC)[C@@H](C)CC)C(=O)N[C@@H](Cc1c[nH]cn1)C(=O)N[C@@H](CCC(N)=O)C(=O)NC(C)(C)C(=O)N[C@@H](CC(=O)O)C(=O)N[C@@H](Cc1ccccc1)C(=O)N[C@H](C(=O)N[C@@H](CCC(=O)O)C(=O)N[C@@H](Cc1ccncc1)C(=O)N[C@@H](CCCCNC(=O)COCCOCCNC(=O)COCCOCCNC(=O)CC[C@H](NC(=O)CCCCCCCCCCCCCCCCC(=O)O)C(=O)O)C(=O)N[C@@H](CC(C)C)C(=O)N[C@@H](CCC(=O)O)C(=O)NCC(=O)NCC(=O)N1CCC[C@H]1C(=O)N[C@@H](CO)C(=O)N[C@@H](CO)C(=O)NCC(=O)N[C@@H](C)C(=O)N1CCC[C@H]1C(=O)N1CCC[C@H]1C(=O)N1CCC[C@H]1C(=O)N[C@@H](CO)C(N)=O)C(C)C [Example 110] (H-Y[Aib]EGTFISDYSI[αMeL]LDKIHQ[Aib]DFVE[4Pal]K([AEEA-AEEA-γGlu-C18 diacid])LEGGPSSGAPPPS-NH2) | > 960 nM | > 5000 nM
CC[C@H](C)[C@H](NC(=O)[C@H](CCCN)NC(=O)[C@H](CC(=O)O)NC(=O)[C@H](CC(C)C)NC(=O)[C@](C)(CC(C)C)NC(=O)[C@@H](NC(=O)[C@H](CO)NC(=O)[C@H](Cc1ccc(O)cc1)NC(=O)[C@H](CC(=O)O)NC(=O)[C@H](CO)NC(=O)[C@@H](NC(=O)[C@H](Cc1ccccc1)NC(=O)[C@@H](NC(=O)CNC(=O)[C@H](CCC(=O)O)NC(=O)C(C)(C)NC(=O)[C@@H](N)Cc1ccc(O)cc1)[C@@H](C)O)[C@@H](C)CC)[C@@H](C)CC)C(=O)N[C@@H](Cc1c[nH]cn1)C(=O)N[C@@H](CCC(N)=O)C(=O)NC(C)(C)C(=O)N[C@@H](CC(=O)O)C(=O)N[C@@H](Cc1ccccc1)C(=O)N[C@H](C(=O)N[C@@H](CCC(=O)O)C(=O)N[C@@H](Cc1ccncc1)C(=O)N[C@@H](CCCCNC(=O)COCCOCCNC(=O)COCCOCCNC(=O)CC[C@H](NC(=O)CCCCCCCCCCCCCCCCC(=O)O)C(=O)O)C(=O)N[C@@H](CC(C)C)C(=O)N[C@@H](CCC(=O)O)C(=O)NCC(=O)NCC(=O)N1CCC[C@H]1C(=O)N[C@@H](CO)C(=O)N[C@@H](CO)C(=O)NCC(=O)N[C@@H](C)C(=O)N1CCC[C@H]1C(=O)N1CCC[C@H]1C(=O)N1CCC[C@H]1C(=O)N[C@@H](CO)C(N)=O)C(C)C [Example 111] (H-Y[Aib]EGTFISDYSI[αMeL]LD[Orn]IHQ[Aib]DFVE[4Pal]K([AEEA-AEEA-γGlu-C18 diacid])LEGGPSSGAPPPS-NH2) | > 960 nM | > 5000 nM
